Article PMC5343891, “Cell Imaging Counting as a Novel Ex Vivo Approach for Investigating Drug-Induced Hepatotoxicity in Zebrafish Larvae” (International Journal of Molecular Sciences, 2017)

What was measured:
[1] = tested on: Tg(fabp10a:DsRed) zebrafish larvae; test: Hepatotoxicity by visual analysis of liver morphology using fluorescence microscopy; assay type: in vivo, Zebrafish (Danio rerio); details: 6 dpf; for Hepatotoxicity detected: Morphology: vs vehicle control; on Hepatotoxicity detected: Morphology: key: Bold S: statistically significant difference; NS: no statistically significant difference
Method: We observed a range of abnormal liver phenotypes including reduced and enlarged livers (Figure 2). […].
The results are expressed as the percentage of larvae having normal or abnormal liver morphology.
(§1) At 6 dpf treated larvae were anesthetized by 0.5 mM tricaine in a 6 well-plate (Falcon®) and arranged so that they were lying on their right sides with their heads facing left. This enabled us to view the left lateral side of the larvae and the larger lobe of the liver that was scored in a blinded manner under a fluorescence microscope (Leica MZ10F-Dsred channel, 40× magnification, Leica Microsystems, Wetzlar, Germany). Livers were considered abnormal if their typical globular structure underwent gross morphological changes. Images of the livers (including a scale bar) were imported to ImageJ software (National Institutes of Health, Bethesda, MD, USA) for determining the liver size. To that end, the picture was set to scale (functions: analyze, set scale), the liver area extracted (functions: split channel, threshold) and the area calculated (function: analyze particles, settings: size = 0−infinity, circularity = 0.00−1.00).

[2] = tested on: Tg(fabp10a:DsRed) zebrafish larvae; test: Lethality in zebrafish larvae: maximum non-toxic drug concentration/dose (MC/MD); assay type: in vivo, Zebrafish (Danio rerio); details: for MC: maximum non-toxic drug concentration: immersion 3-6 dpf, less than 10% larval death at 6 dpf, or highest soluble concentration; for lethality (larval death): immersion, yolk and pericardial injection, up to highest soluble concentration/dose, 6 dpf; for MD: maximum non-toxic drug dose: less than 10% larval death at 6 dpf, or highest dose injectable without precipitation
Source text: The results are expressed as percentage of dead larvae relative to the total larvae (mean ± SD).

[3] = tested on: Tg(fabp10a:DsRed) zebrafish larvae; test: Hepatotoxicity by size analysis of fluorescent 2D liver images (ImageJ); assay type: in vivo, Zebrafish (Danio rerio); details: for Hepatotoxicity detected: Liver size: 6 dpf, vs vehicle control; for change in liver size: any of the administration routes, vs non-treated animals; on Hepatotoxicity detected: Liver size: key: Bold S: statistically significant difference; NS: no statistically significant difference
Method: Next, the 2D images obtained in the previous section were used to analyze the size of the fluorescent livers by ImageJ software. […].
as §1

[4] = Pharmacokinetics in zebrafish larvae (larval extracts, UHPLC-UV); assay type: in vivo, Zebrafish (Danio rerio); details: 0-24 h post treatment; for course of larval concentration after injection: yolk and pericardial injection at MD
Method: At given time points (0, 2, 6, 12 and 24 h), treated larvae were collected and transferred to 1.5 mL Eppendorf® tubes pre-filled with acid washed glass beads (diameter: 710–1180 µm, Sigma-Aldrich) and 270 µL of extraction medium (1:2 water:methanol, each containing 0.1% formic acid) was added (10 larvae per Eppendorf® tube). Samples were centrifuged for 15 s at 14,100× g (Eppendorf Mini Spin Plus, Hamburg, Germany) to insure high homogenization efficiency. Subsequently, the samples were homogenized with ultrasonication (Diagenode Bioruptor Plus, Seraing, Belgium) at +4 °C and high energy input setting to ensure the highest possible disruption of the cells. The overall treatment time was 15 min spread over 30 cycles of 30 s treatment followed by pauses of 30 s in-between. Six samples were homogenized during each treatment cycle. Subsequently, treated samples were centrifuged at 14,100× g for 15 min and 200 µL of supernatant was transferred to an empty Eppendorf tube (1.5 mL) and stored on ice until all samples were processed. All samples were then placed into a vacuum oven (Model 1410, Sheldon Manufacturing Inc., Cornelius, OR, USA) and evaporated until dry at +45 °C during 45 min. The samples were then reconstituted with a mobile phase-like solution (6% acetonitrile in water), vortexed for 5 s, resuspended at least three times with a micropipette and sonicated (Branson 3510, Danbury, CT, USA) for 15 min. Finally, samples were transferred into amber glass vials (Supelco, Bellefonte, PA, USA) with 250 µL glass inserts (Supelco) for further analysis on UHPLC-UV.
An Agilent 1290 UHPLC system (Agilent, Waldbronn, Germany) consisting of an autosampler, quaternary pump, degasser and DAD-detector (diode array detector) was used for all uptake measurements. […] All calculations concerning the evaluation of recorded data were made in MS Excel (Microsoft Corporation, Seattle, WA, USA). […]
The larval amount of hepatotoxicant (mg/kg) was calculated assuming the weight of a 3 or 4 dpf Tg(fabp10a:DsRed) zebrafish larva to be 0.25 mg.

[5] = tested on: Tg(fabp10a:DsRed) zebrafish larvae; test: Hepatotoxicity by quantification of DsRed-labeled hepatocytes using cell imaging counting (CIC); details: for change in amount of recovered hepatocytes: any of the administration routes, vs non-treated animals; for Hepatotoxicity detected: number of Hepatocytes (CIC): 6 dpf, vs vehicle control
Method: We then used CIC and quantified ex vivo DsRed-labeled hepatocytes after dispase-digestion of hepatotoxicant-exposed larvae. […] Analysis was performed after three days of treatment (immersion) or three days after treatment (injection), at 6 dpf. A total of 10 and 12 larvae were used individually per condition for immersion and injections, respectively. The experiment was performed in triplicate and data were pooled. […] Means ± SD of the number of hepatocytes per larva are shown.
Compounds tested were dissolved in DMSO (stock solution) and then further diluted in Danieau’s solution with a final concentration of 1% DMSO or diluted with 0.9% NaCl solution (1:1 ratio) to obtain a working solution for immersion and yolk/pericardial injections, respectively. At 3 dpf, hatched Tg(fabp10a:DsRed) larvae were transferred to 24-well plates (Falcon®, Corning, Lasne, Belgium) with each well containing 10 larvae in 1 mL Danieau’s solution and the dissolved drug or the vehicle control for immersion. For yolk injections, and pericardial injections into the bloodstream via the common cardinal veins, 12 larvae were used for each condition, and each larva was injected with 1 nL of solution at 3 dpf.
In order to digest the larvae and separate hepatocytes from the liver, larvae were transferred to 96 well-plates (Falcon®, Corning, Lasne, Belgium) with one larva per well and incubated with 200 µL 2.5 mg dispase/mL DPBS for 4 h. […] The hepatocytes were dispersed by pipetting up and down 20 times with a 1 mL automatic pipette. After digestion, hepatocytes were positioned at the bottom of the well by centrifugation at 200× g (Jouan CR412 centrifuge, Jouan, Saint-Herblain, France) for 15 min.
Fluorescent hepatocytes present in the wells were imaged and counted on an IN Cell Analyzer 2000 using software IN Cell Investigator Developer Toolbox (GE Healthcare, Machelen, Belgium), with a 2×/0.1 NA lens, DsRed fluorescence channel, a 0.1-s exposure time, and the intensity segmentation (172-4095) set to ensure hepatocytes were recognized selectively.
Differences between drug-treated groups and control vehicle control (VHC) regarding numbers of hepatocytes and liver sizes were analyzed for statistical significance using an ANOVA test. Regarding the liver morphology, Fisher’s exact test was used for the analysis. p < 0.05 was considered statistically significant.

[6] = immersion, MC and lower concentrations
[7] = all three administration routes, MC/MD and dilutions

SMILES	Hepatotoxicity detected: Morphology ([1]; immersion, MC)	Hepatotoxicity detected: Morphology ([1]; yolk injection, MD)	MC: maximum non-toxic drug concentration [2]	lethality (larval death) [2]	MD: maximum non-toxic drug dose ([2]; pericardial injection at 3 dpf)	MD: maximum non-toxic drug dose ([2]; yolk injection at 3 dpf)	hepatotoxicity by liver size [3, 6]	Hepatotoxicity detected: Liver size ([3]; immersion, MC)	course of larval concentration after injection [4]	abnormal liver morphology [1, 7]	change in liver size [3]	change in amount of recovered hepatocytes [5]	also measured
CC(=O)Nc1ccc(O)cc1 [Paracetamol]	S	S	7500 µM	caused larval death in several of the conditions tested	604 ^1 mg/kg	604 ^1 mg/kg	hepatotoxic only at their MC	S	fully excreted or metabolized after 24 h	–	–	–	Hepatotoxicity detected: Morphology ([1]; immersion, ½ MC): S; abnormal liver morphology ([1]; pericardial injections): no significant toxic effects; Hepatotoxicity detected: Morphology ([1]; yolk injection, ½ MD): S; hepatotoxicity by liver size ([3]; injected (yolk or pericardial)): exhibited an effect at its MD after yolk administration; Hepatotoxicity detected: Liver size ([3]; yolk injection, MD): S; half-life ([4]; Tg(fabp10a:DsRed), zebrafish, in vivo, after both yolk and pericardial injections (604 mg/kg), read-out: half-life of larval concentration): 6 to 8 h
C[C@@H]1O[C@@H](OC[C@H]2O[C@@H](Oc3c(-c4ccc(O)c(O)c4)oc4cc(O)cc(O)c4c3=O)[C@H](O)[C@@H](O)[C@@H]2O)[C@H](O)[C@H](O)[C@H]1O [Rutin]	–	–	200 ^1 µM	did not induce lethality	150 ^1 mg/kg	150 ^1 mg/kg	–	–	–	did not induce abnormal liver morphology	did not induce any change in liver size	did not induce any change in the amount of recovered hepatocytes	–
OC[C@H]1O[C@@](CO)(O[C@H]2O[C@H](CO)[C@@H](O)[C@H](O)[C@H]2O)[C@@H](O)[C@@H]1O [Sucrose]	–	–	8000 ^1 µM	did not induce lethality	548 ^1 mg/kg	548 ^1 mg/kg	–	–	–	did not induce abnormal liver morphology	did not induce any change in liver size	did not induce any change in the amount of recovered hepatocytes	–
CN(C)[C@@H]1C(O)=C(C(N)=O)C(=O)[C@@]2(O)C(O)=C3C(=O)c4c(O)cccc4[C@@](C)(O)[C@H]3C[C@@H]12 [Tetracycline]	S	S	–	–	384 ^1 mg/kg	192 mg/kg	hepatotoxic only at their MC	S	remained nearly constant	induced abnormal liver morphology in a dose-dependent manner	–	–	Hepatotoxicity detected: Morphology ([1]; pericardial injection, MD): S; Hepatotoxicity detected: Morphology ([1]; pericardial injection, ½ MD): S; Hepatotoxicity detected: number of Hepatocytes (CIC) ([5]; immersion, MC): S; hepatotoxicity by CIC hepatocyte count ([5]; immersion, three concentrations): hepatotoxic effects induced by all three tetracycline concentrations; Hepatotoxicity detected: number of Hepatocytes (CIC) ([5]; immersion, ¼ MC): S; Hepatotoxicity detected: number of Hepatocytes (CIC) ([5]; immersion, ½ MC): S; hepatotoxicity by CIC hepatocyte count ([5]; injected doses (yolk or pericardial)): showed no effects
